The source of these data is patent US8563614B2, “Use of treprostinil to treat neuropathic diabetic foot ulcers” (United Therapeutics Corporation, priority 2004, dated 2013).

Data set [1] relates to patients with PAD, diabetes and inoperable ischemic foot ulcers. Briefly: open-label study of safety and efficacy in patients with PAD, diabetes and inoperable ischemic foot ulcers. Format: in vivo. Here is the method:
The purpose of this open-label study is to evaluate the safety and efficacy of treprostinil sodium, a stable prostacyclin analogue, in ten patients with PAD, diabetes and inoperable ischemic foot ulcers.
Treprostinil sodium was administered as a continuous subcutaneous infusion beginning at 2.5 ng/Kg/Min and titrated to highest tolerated dose for 12 weeks. Patients were monitored for adverse events, wound healing, skin perfusion pressure and ischemic rest pain.

Data set [2] has as its system diabetics with non-healing wounds in critically ischemic lower extremities. Briefly: case-controlled trial in diabetic patients with recalcitrant lower extremity wounds: peri-wound TcPO2 and laser Doppler. Format: in vivo, human. As to the method: A case-controlled trial examining the effects of treprostinil sodium (Remodulin®), by continuous subcutaneous infusion, was performed in diabetic patients with recalcitrant lower extremity wounds. The known vasodilator and platelet-aggregation inhibitor properties of treprostinil sodium warranted its evaluation as an adjuvant to wound healing in ischemic extremities. The primary endpoints were wound healing and limb salvage. Amongst the secondary endpoints were resting peri-wound transcutaneous oximetry (TcPO2) and laser Doppler analysis (LD) and the response of TcPO2 and LD to an oxygen challenge at ambient or elevated pressure. If treprostinil sodium reduces inflow resistance distal to the pre-capillary sphincter, the ΔpO2 between the hypoxic wound center and the inflow blood should increase both in magnitude and in the slope of that difference. This would be the physiologic basis for the augmentation of the hypoxic signal.
The seven enrolled patients were diabetics with non-healing wounds present (>3 months) in critically ischemic lower extremities (Fontaine Stage III-IV or Rutherford Stage 4, 5 or 6). The treprostinil sodium (Remodulin®) was given by continuous subcutaneous infusion for the study period of 6 weeks. Candidacy for hyperbaric oxygen treatment was an exclusion criterion (patient refusal, logistical constraints or a recently completed HBO2 course). […]

Data set [3] deals with diabetic neuropathy patients having at least one ulcer present on a foot. Briefly: administration to humans with diabetic neuropathy suffering from foot ulcers. The format is in vivo. As to conditions: continuous subcutaneous infusion, 2.5 ng/kg/min raised weekly to target dose, 12 weeks. Here is the method:
Diabetic neuropathy patients having at least one ulcer (i.e., small sore or area of tissue gangrene) present on a foot are dosed with increasing amounts of Treprostinil over 12 weeks. The medication is delivered by a small pump that is connected to a catheter placed under the skin. In this manner, increasing dosages of Treprostinil are administered to patients by chronic continuous subcutaneous infusion.
Specifically, a 1.0 mg/mL formulation of Treprostinil sodium (REMODULIN®) is administered subcutaneously using a standard micro-infusion, positive-pressure infusion pump designed for subcutaneous drug delivery (Mini-Med). Patients receive an initial dose of 2.5 ng/kg/min of study drug. If, in a given patient, a dose of 2.5 ng/kg/min is not tolerated (e.g., persistent headache, nausea, emesis, restlessness, anxiety or severe pain at infusion site that cannot be adequately managed by medication or topical treatment), the dose is reduced to 1.25 ng/kg/min. Patients are maintained at 2.5 ng/kg/min (or 1.25 ng/kg/min if 2.5 ng/kg/min is not tolerated) during Week 1. After that, the dose is raised by 2.50 ng/kg/min each week until not tolerated or once a target dose is reached.
Dosing is increased weekly unless not tolerated by the patient. […] One example of a target dose is 15 ng/kg/min. The minimum dose is usually not less than 0.625 ng/kg/min. […]

Data set [4] has as its system human pulmonary arterial smooth muscle cells. As to conditions: Clapp et al. 2002; cited from earlier work.
For data set [5], the system named is human alveolar macrophages. As to conditions: Raychaudhuri et al. 2002; cited from earlier work.
The test system of data set [6] is patients with class III or class IV heart failure. As to conditions: Patterson et al. 1995; cited from earlier work.
[7] abbreviates: of seven patients who completed the trial to-date, 12 weeks.

On to `CCCCC[C@H](O)CC[C@@H]1[C@H]2Cc3cccc(OCC(=O)O)c3C[C@H]2C[C@H]1O` [Treprostinil sodium], for which, in data set [1] (conclusion of the study), the “effect on ischemic rest pain, skin perfusion, and wound healing” value is listed as “positive effect”. For the same compound, the “increase in LD signals (thermal stimulation response)” value in data set [2] (all patients with exception of one, on drug against before infusion) was 236%. The “patients who demonstrated healing in wounds” value in data set [2] (seven enrolled patients, continuous subcutaneous infusion for 6 weeks, wounds with mean healing arrest of 10.5 months) is given as “All patients but one”.
For `CCCCC[C@H](O)CC[C@@H]1[C@H]2Cc3cccc(OCC(=O)O)c3C[C@H]2C[C@H]1O` [Treprostinil, 9-deoxy-2′,9-α-methano-3-oxa-4,5,6-trinor-3,7-(1′,3′-interphenylene)-13,14-dihydro-prostaglandin F1], the “serious adverse events attributed to treprostinil” value in data set [1] (continuous subcutaneous infusion from 2.5 ng/Kg/Min titrated to highest tolerated dose, 12 weeks, seven patients completed) is reported as “No serious adverse events”. The “drug related side effect reported” value in data set [1] (continuous subcutaneous infusion, 12 weeks, seven patients completed) is “mild to moderate infusion site pain”. Besides, in data set [1] (setting [7]), the “patients who experienced complete healing” value is given as “Two”, the “patients who experienced complete resolution of rest pain” value is reported as “Five” and the “patients who experienced partial healing” value is recorded as “Two”. In addition, in data set [3], the “foot ulcers present before treatment” value was “reduction in the number, size and severity”; the “new foot ulcers associated with diabetic neuropathy” value is reported as “fewer new foot ulcers”. The “proliferation of human pulmonary arterial smooth muscle cells” value in data set [4] is “inhibits proliferation”. For the same compound, the “inflammatory cytokine (tumor necrosis factor-α, interleukin-1β, interleukin-6, GM-CSF) secretion and gene expression” value in data set [5] is reported as “inhibits”. In addition, the vasodilator effects result in data set [6] is recorded as “vasodilator effects”.
